Source: patent US20130150434A1 (SOMAXON PHARMACEUTICALS, INC., priority 2006, published 2013)

How the values were obtained:
[1] = test system: chronic primary insomnia patients with sleep maintenance difficulties; assay: Phase III study of doxepin, rebound insomnia by PSG during the 2-day discontinuation period; assay type: in vivo, human; settings: Doxepin HCl 6 mg group; for Rebound insomnia frequency: patients with LPS change from Baseline ≧20 minutes at Visit 7, count (%) / Rebound insomnia frequency: patients with TST change from Baseline ≦−30 minutes at Visit 7, count (%) / Rebound insomnia frequency: patients with WASO change from Baseline ≧35 minutes at Visit 7, count (%): N = 68 evaluable
From the text: The term “rebound insomnia” refers to the common occurrence that a person may have more trouble sleeping the first few nights after a sedative medicine is stopped than before starting the medicine. After more than a few days' use, discontinuing a hypnotic or sedative medication can make the original sleep problem worse and can cause an increase anxiety. Rebound insomnia may be measured as the mean change in mean wake time after sleep onset (WASO) from baseline to the first night of discontinuation.
Patients were discharged from the sleep center after all final study-related procedures had been completed on the Final Study Day (Day 38, Early Termination [ET]).
Safety: Safety was assessed based on AEs, clinical laboratory tests (hematology, serum chemistry, and urinalysis), vital signs, physical examinations, neurological assessments, 12-lead ECGs, and ratings of hangover/residual effects (digit-symbol substitution test (DSST), symbol copying test (SCT), and the visual analog scale (VAS) for sleepiness), assessment of rebound insomnia using PSG recordings during the discontinuation period, and withdrawal symptoms using the benzodiazepine withdrawal symptom questionnaire (BWSQ).

[2] = test system: chronic primary insomnia patients with sleep maintenance difficulties; assay: Phase III study of doxepin, 8-hour PSG efficacy variables (WASO, TST, SE, LPS); settings: for 8-hour WASO, Mean (SD) / LPS (latency to persistent sleep, PSG), Mean (SD) / SE - Hour 8 (PSG), Mean (SD) / TST (8-hour PSG), Mean (SD) / LPS (PSG), Mean (SD) / SE (8-hour PSG), Mean (SD): ITT
From the text: Patients with at least a 3-month history of primary insomnia, according to Diagnostic and Statistical Manual of Mental Disorders, Fourth Edition Text Revision (DSM-IV-TR)-defined primary insomnia were enrolled.
Patients were screened (Visit 1) to determine study eligibility and asked to discontinue any protocol-disallowed prescription or over-the-counter (OTC) medications used as sleep medication. At the beginning of the first week (polysomnography [PSG] Screening, Visit 2), eligible patients began two weeks of single-blind placebo dosing and had two consecutive nights of 8-hour PSG recording in the sleep center. Patients were required to meet the PSG screening criteria to remain eligible for the study. Patients were allowed to leave the sleep center during the day after the PSG Screening nights and continued to take single-blind placebo after PSG Screening (Visit 2) for five consecutive nights at home.
Patients were allowed to leave the sleep center during the day after the PSG nights and continued taking single-blind placebo for five consecutive nights at home.
After the PSG Screening and Baseline periods, patients began a 35-day double-blind treatment period during which they were given study drug supplies at each scheduled visit (Visits 4, 5, and 6). The scheduled study visits consisted of two consecutive nights of 8-hour PSG recording in the sleep center and next day assessments to assess sedative efficacy. Patients were asked to complete hangover/residual effects assessments, morning and evening questionnaires, and the Benzodiazepine Withdrawal Symptom Questionnaire (BWSQ) at each of these visits.
Primary Efficacy: The primary efficacy variable was wake after sleep onset (WASO) obtained on Night 1 as determined by PSG recordings using the ITT analysis set.
Additional PSG efficacy variables: Additional efficacy variables obtained on the first PSG assessment nights (Nights 1 and 29) included WASO (Night 29), wake time during sleep (WTDS), total sleep time (TST), sleep efficiency (SE), including whole night, third of the night, and by hour, and latency to persistent sleep (LPS), latency to Stage 2 sleep, number of awakenings after sleep onset (NAASO), total wake time (TWT), wake time after sleep (WTAS), and, sleep architecture including percentage and minutes of Stage 1, 2, and 3/4 non-rapid eye movement (NREM) sleep, percentage and minutes of rapid eye movement (REM) sleep, and latency to REM sleep.
Methods used to analyze other endpoints were the same as those used to analyze WASO. For LPS, latency to REM sleep, latency to Stage 2 sleep, and LSO, data were expected to be log-normally distributed and were analyzed using log-transformed values (base 10). The safety data were analyzed primarily using descriptive statistical methods.
All efficacy analyses were performed on the Intent-to-treat (ITT) analysis set. […] Data were analyzed as randomized and based on observed cases.

[3] = Visit 7, Night 37 (discontinuation)
[4] = doxepin 3 mg, Night 1, p<0.0001 vs placebo
[5] = doxepin 3 mg, Night 15, p 0.1977 vs placebo
[6] = doxepin 3 mg, Night 29, p 0.0262 vs placebo
[7] = doxepin 6 mg, Night 1, p<0.0001 vs placebo
[8] = doxepin 6 mg, Night 15, p 0.0157 vs placebo
[9] = doxepin 6 mg, Night 29, p 0.0003 vs placebo

For `CN(C)CCC=C1c2ccccc2COc2ccccc21` [Doxepin, 11-(3-dimethylaminopropylidene)-6,11-dihydrodibenzo (b,e)oxepin], which “WASO (rebound insomnia analysis), Mean (SD)” value ([1]; Baseline = worst WASO value of Nights −6 and −5 from Visit 3) is on record?
The value was 78.4 (40.37) minutes.

What about the “Rebound insomnia frequency: patients with LPS change from Baseline ≧20 minutes at Visit 7, count (%)” value ([1]; Night 36) of the same compound?
Its value is 8 (12%).

And the “Rebound insomnia frequency: patients with TST change from Baseline ≦−30 minutes at Visit 7, count (%)” value ([1]; Night 36)?
Its value is 6 (9%).

What about the “Rebound insomnia frequency: patients with WASO change from Baseline ≧35 minutes at Visit 7, count (%)” value ([1]; Night 36) of the same compound?
Its value is 7 (10%).

What about the “Rebound insomnia frequency: patients with LPS change from Baseline ≧20 minutes at Visit 7, count (%)” value ([1]; Night 36 and Night 37) of the same compound?
The value was 2 (3%).

What about the “Rebound insomnia frequency: patients with TST change from Baseline ≦−30 minutes at Visit 7, count (%)” value ([1]; Night 36 and Night 37) of the same compound?
The value was 2 (3%).

And the “Rebound insomnia frequency: patients with WASO change from Baseline ≧35 minutes at Visit 7, count (%)” value ([1]; Night 36 and Night 37)?
The value was 3 (4%).

And the “WASO, Median” value ([1]; Visit 7, Night 36 (discontinuation))?
Its value is 46.0 min.

What about the “WASO, Mean (SD)” value ([1]; Visit 7, Night 36 (discontinuation, single-blind placebo after 35 nights of treatment)) of the same compound?
The value was 55.9 (40.26) minutes.

And the “WASO, Mean (SD)” value [1, 3]?
The value was 56.0 (42.68) minutes.

And the “WASO, Median” value [1, 3]?
The value was 49.0 min.

What about the “WASO, Change from Baseline to Visit 7, Night 36, Median” value ([1]; discontinuation) of the same compound?
The value was -16.5 min.

And the “WASO, Change from Baseline to Visit 7, Night 37, Median” value ([1]; discontinuation)?
Its value is -20.0 min.

And the “WASO, Change from Baseline to Visit 7, Night 36, Mean (SD)” value ([1]; discontinuation, 95% CI (−34.99, −12.27))?
Its value is −23.6 (46.93) minutes.

What about the “WASO, Change from Baseline to Visit 7, Night 37, Mean (SD)” value ([1]; discontinuation, 95% CI (−36.26, −12.38)) of the same compound?
The value was −24.3 (47.41) minutes.

And the “Sedative tolerance (sleep maintenance variables across study visits, PSG)” value ([2]; 3 mg and 6 mg, 35-day double-blind treatment)?
Its value is “no evidence of sedative tolerance”.

And the “8-hour WASO, Mean (SD)” value ([2]; doxepin 3 mg group, Baseline (single-blind placebo))?
The value was 67.8 (33.56) minutes.

And the “LPS (latency to persistent sleep, PSG), Mean (SD)” value ([2]; doxepin 3 mg group, Baseline)?
Its value is 35.9 (29.84) minutes.

And the “SE - Hour 8 (PSG), Mean (SD)” value ([2]; doxepin 3 mg group, Baseline)?
The value was 74.9 (22.87) %.

And the “TST (8-hour PSG), Mean (SD)” value ([2]; doxepin 3 mg group, Baseline)?
The value was 380.3 (46.09) minutes.

And the “8-hour WASO, Mean (SD)” value ([2]; doxepin 3 mg, Night 1 (primary), p<0.0001 vs placebo)?
Its value is 41.4 (31.51) minutes.

What about the “LPS (PSG), Mean (SD)” value ([2]; doxepin 3 mg, Night 1, p 0.0110 vs placebo) of the same compound?
Its value is 26.7 (23.42) minutes.

And the “SE (8-hour PSG), Mean (SD)” value [2, 4]?
Its value is 86.5 (8.68) %.

What about the “SE - Hour 8 (PSG), Mean (SD)” value [2, 4] of the same compound?
Its value is 87.8 (14.28) %.

And the “TST (8-hour PSG), Mean (SD)” value [2, 4]?
The value was 415.3 (41.65) minutes.

And the “8-hour WASO, Mean (SD)” value ([2]; doxepin 3 mg, Night 15, p 0.0053 vs placebo)?
The value was 44.8 (27.26) minutes.

What about the “SE (8-hour PSG), Mean (SD)” value [2, 5] of the same compound?
The value was 83.7 (10.12) %.

What about the “TST (8-hour PSG), Mean (SD)” value [2, 5] of the same compound?
The value was 401.7 (48.56) minutes.

What about the “LPS (PSG), Mean (SD)” value ([2]; doxepin 3 mg, Night 15, p 0.3644 vs placebo) of the same compound?
The value was 38.2 (40.52) minutes.

And the “SE (8-hour PSG), Mean (SD)” value [2, 6]?
The value was 85.0 (10.92) %.

What about the “TST (8-hour PSG), Mean (SD)” value [2, 6] of the same compound?
Its value is 408.1 (52.41) minutes.

And the “8-hour WASO, Mean (SD)” value ([2]; doxepin 3 mg, Night 29, p 0.0299 vs placebo)?
The value was 47.3 (43.53) minutes.

And the “SE - Hour 8 (PSG), Mean (SD)” value ([2]; doxepin 3 mg, Night 29, p 0.0524 vs placebo)?
The value was 81.9 (20.81) %.

And the “LPS (PSG), Mean (SD)” value ([2]; doxepin 3 mg, Night 29, p 0.9008 vs placebo)?
The value was 28.0 (25.99) minutes.

And the “8-hour WASO, Mean (SD)” value ([2]; doxepin 6 mg group, Baseline (single-blind placebo))?
Its value is 65.0 (33.23) minutes.

And the “LPS (latency to persistent sleep, PSG), Mean (SD)” value ([2]; doxepin 6 mg group, Baseline)?
The value was 39.1 (34.10) minutes.

What about the “SE - Hour 8 (PSG), Mean (SD)” value ([2]; doxepin 6 mg group, Baseline) of the same compound?
The value was 76.4 (21.26) %.

What about the “TST (8-hour PSG), Mean (SD)” value ([2]; doxepin 6 mg group, Baseline) of the same compound?
Its value is 380.3 (43.09) minutes.

What about the “8-hour WASO, Mean (SD)” value ([2]; doxepin 6 mg, Night 1 (primary), p<0.0001 vs placebo) of the same compound?
Its value is 36.3 (26.14) minutes.

What about the “SE (8-hour PSG), Mean (SD)” value [2, 7] of the same compound?
Its value is 87.6 (7.72) %.

What about the “SE - Hour 8 (PSG), Mean (SD)” value [2, 7] of the same compound?
The value was 88.4 (14.25) %.

What about the “TST (8-hour PSG), Mean (SD)” value [2, 7] of the same compound?
Its value is 420.5 (37.07) minutes.

And the “8-hour WASO, Mean (SD)” value ([2]; doxepin 6 mg, Night 15, p 0.0023 vs placebo)?
Its value is 41.9 (29.67) minutes.

And the “SE (8-hour PSG), Mean (SD)” value [2, 8]?
Its value is 85.7 (10.70) %.

And the “TST (8-hour PSG), Mean (SD)” value [2, 8]?
The value was 411.3 (51.34) minutes.

And the “LPS (PSG), Mean (SD)” value ([2]; doxepin 6 mg, Night 15, p 0.8315 vs placebo)?
The value was 31.8 (36.57) minutes.

What about the “SE (8-hour PSG), Mean (SD)” value [2, 9] of the same compound?
The value was 87.3 (9.37) %.

And the “TST (8-hour PSG), Mean (SD)” value [2, 9]?
Its value is 419.1 (44.98) minutes.

What about the “8-hour WASO, Mean (SD)” value ([2]; doxepin 6 mg, Night 29, p 0.0012 vs placebo) of the same compound?
The value was 41.2 (37.91) minutes.

What about the “SE - Hour 8 (PSG), Mean (SD)” value ([2]; doxepin 6 mg, Night 29, p 0.0034 vs placebo) of the same compound?
The value was 85.8 (19.66) %.

What about the “LPS (PSG), Mean (SD)” value ([2]; doxepin 6 mg, Night 29, p 0.9989 vs placebo) of the same compound?
Its value is 24.7 (21.48) minutes.
